Test: in vitro
Settings: human, hela cells
[1] = % viability, bulk resorufin, single well

SMILES | viability at 28.5 h, 10 µM (% viability) | also measured
O=c1cc(NCCCN2CCN(Cc3ccccc3)CC2)c2ccccc2o1 [CBK011079] | 81% | 
O=S(=O)(Cc1csc(N2CCOCC2)n1)c1ccccn1 [CBK011137] | 90.1% | 
CC[n+]1c(C(C)(C)C)csc1NCC1CC1 [CBK011154B] | 106% | 
CCOC(=O)c1ccc(C2=NCCC2)[nH]1 [CBK011191] | 95.1% | 
O=C(O)c1c[nH]c2ccc(S(=O)(=O)N3CCOCC3)cc12 [CBK011237] | 97.3% | 
O=C(c1ccc([N+](=O)[O-])cc1)C12CN3CN(CN(C3)C1)C2 [CBK011238] | 87.1% | 
NC(=S)c1c(Cl)cc(C(F)(F)F)cc1Cl [CBK011349] | 105% | 
CC(=O)Nc1nc2c3ccccc3n(C(C)=O)c2s1 [CBK011360] | 110% | 
CC1=CCC2(CC1)COC(C(C)(C)CN(C)C)OC2 (stereo not drawn) [CBK011369] | 91.7% | 
Fc1ccc(NC(=S)NCC2CC2)c(F)c1 [CBK011398] | 100% | 
CN1CC(CO)CCC1Cc1c[nH]c2ccccc12 (stereo not drawn) [CBK011468] | 92.4% | 
CC(C)N(CCc1cc2ccccc2o1)C(C)C [CBK011518C] |  | viability at 28.5 h, 10 µM [1]: 113%
CCC1=C(C)C(=O)N(C(=O)NCCc2ccc(S(=O)(=O)NC(=O)NC3CCC(C)CC3)cc2)C1 (stereo not drawn) [CBK011561] | 93.2% | 
CCCCC[C@H](O)CCC1[C@H](O)C[C@@H]2Cc3c(cccc3OCC(=O)O)C[C@H]12 (stereo partly drawn) [CBK011575] | 98.3% | 
Nc1nnc(-c2cccc(Cl)c2Cl)c(N)n1 [CBK011590] | 85.8% | 
NC(=O)CN1CC(O)CC1=O (stereo not drawn) [CBK011649] | 86.1% | 
CC(C)(C)NCC(O)COc1cccc2c1C[C@H](O)[C@H](O)C2 (stereo partly drawn) [CBK011678] | 102% | 
CN1C2CCC1CC(OC(c1ccccc1)c1ccccc1)C2 (stereo not drawn) [CBK011710G] | 99.6% | 
c1ccc(C2CCCNC2)cc1 (stereo not drawn) [CBK011753] | 100% | 
COc1cnc(C(=O)NCCc2ccc(S(=O)(=O)NC(=O)NC3CCCCC3)cc2)cn1 [CBK011761] | 104% | 
CC1Cc2cc(C(O)(CCN(C)C)c3ccccc3)ccc2O1 (stereo not drawn) [CBK011764] | 110% | 
Cn1c(C(=O)NCCc2ccc(S(=O)(=O)NC(=O)NC3CCCCC3)cc2)cc2ccccc21 [CBK011876] | 128% | 
O=C(NCCc1ccc(S(=O)(=O)NC(=O)NC2CCCCC2)cc1)NC1CCCCC1 [CBK011926] | 88.4% | 
CN(C)CC(Oc1ccccc1)C(=O)c1ccccc1 (stereo not drawn) [CBK011935C] | 101% | 
COc1ccc2nc3cc(Cl)ccc3c(NCCO)c2c1 [CBK011939] | 43.8% | 

SMILES | viability at 28.5 h, 10 µM (% viability) | also measured
CCCOc1ccc(C(=O)C(CN(CC)CC)Oc2ccccc2)cc1 (stereo not drawn) [CBK011944C] | 94.7% | 
C[N+](C)(C)Cc1ccccc1 [CBK011977I] | 109% | 
O=P(O)(O)CCCc1ccccc1 [CBK012021] |  | viability at 28.5 h, 10 µM: 80.5%
CC(N)Cc1cn(C)c2ccccc12 (stereo not drawn) [CBK012030C] |  | viability at 28.5 h, 10 µM: 83.8%
CCN(CC)CC(C)C(O)(c1ccccc1)c1ccccc1 (stereo not drawn) [CBK012065C] | 95% | 
O=C(Nc1ccccc1C(=O)O)c1ccccc1O [CBK012116] | 89% | 
N=C(N)NCCCc1c[nH]c2ccccc12 [CBK012139G] | 101% | 
CCN(CC)CC(C)C(O)(c1ccc(Cl)cc1)c1ccc(Cl)cc1 (stereo not drawn) [CBK012146C] | 103% | 
CN(C)C(=O)Cc1ccc(-c2ccccc2)cc1 [CBK012162] | 94.2% | 
Cc1cc2nc(CC(=O)NN)[nH]c2cc1C [CBK012180] | 89.3% | 
CC1OC(n2ccc(=S)[nH]c2=O)C(O)C1O (stereo not drawn) [CBK012231] | 103% | 
CC(CNC1CCCC1)C(O)(c1ccccc1)c1ccccc1 (stereo not drawn) [CBK012237C] | 101% | 
Cc1ccccc1Nc1ccccc1C(=O)O [CBK012249] | 113% | 
O=C(O)c1ccnc2ccccc12 [CBK012261] | 88.2% | 
CC(c1ccc(Cl)cc1)N(CCN(C)C)c1ccccn1 (stereo not drawn) [CBK012273F] | 100% | 
COc1cc(C(=O)NN)cc(OC)n1 [CBK012275] | 83.7% | 
O=C(O)C(Cc1ccc(O)cc1)c1ccccc1 (stereo not drawn) [CBK012287] | 84.7% | 
OC1(c2ccccc2)CCNCC1 [CBK012290] | 101% | 
Cc1ccccc1SCC(C)C(=O)O (stereo not drawn) [CBK012292] | 83% | 
CC1=C(c2ccc(OC(C)(C)CN3CCCC3)cc2)C(C)CCC1 (stereo not drawn) [CBK012357C] | 86.1% | 
Oc1ccc(Nc2ccnc3cc(Cl)ccc23)cc1 [CBK012365C] | 93.5% | 
Cc1nncn1-c1ccc(Cl)cc1C(=O)c1ccccc1Cl [CBK012372] | 101% | 
O=C(c1ccccc1)c1cc(Cl)ccc1-n1ccnc1 [CBK012383] | 105% | 
Nc1ncncc1-c1ccc(Cl)cc1 [CBK012407] | 90.9% | 
CC(C)(Oc1cccc2ccccc12)C(=O)O [CBK012409] | 94.5% | 

SMILES | viability at 28.5 h, 10 µM (% viability) | also measured
CCOC(=O)Cn1c(C)nc(C)cc1=O [CBK012419] | 103% | 
Cc1cnoc1-c1cc(Br)cc(Br)c1O [CBK012420] | 104% | 
COC(=O)c1cc(Cl)c2ccccc2n1 [CBK012428] | 80.4% | 
Cc1n[nH]c(=S)n1-c1ccc(Cl)cc1 [CBK012457] | 94.5% | 
O=C(c1ccc(Nc2ccnc3cc(C(F)(F)F)ccc23)cc1)N1CCC(O)(c2cccc(C(F)(F)F)c2)CC1 [CBK012467] | 91.6% | 
CN(C)[C@H]1CC[C@@H](Cc2ccccc2)C[C@@H]1NC(=O)c1ccc(Cl)c(Cl)c1 [CBK012488] | 97.3% | 
CC(C)(C)Cc1ccc(CC(=O)O)c(OCc2ccccc2)n1 [CBK012508] | 92.6% | 
O=C(O)CCCCc1nn(-c2ccc(Cl)c(Cl)c2)c2c1CCC2 [CBK012529] | 97.5% | 
CC(=O)c1c(C)oc(C)c1C(C)=O [CBK012535] | 88.2% | 
CN(C)CCCC(O)(c1ccccc1)c1ccccc1 [CBK012599] | 109% | 
O=P(O)(O)Cc1ccccc1-c1ccccc1 [CBK012659] | 111% | 
CC(C)Nc1cccnc1N1CCN(C(=O)c2cc3cc(NS(=O)(=O)CCc4ccncc4)ccc3[nH]2)CC1 [CBK012661] | 95.8% | 
O=c1c(Cl)nc(Cl)c(C2CCCCC2)n1Cc1ccccc1 [CBK012671] | 87.6% | 
CC(C)(C)Nc1cc(NCCc2ccccc2)nc(N)n1 [CBK012708] | 86.8% | 
COC(=O)c1cccc(CCC2CC(=O)C=C(O)C2)c1 (stereo not drawn) [CBK012720] | 93.7% | 
NC(=O)C(NCc1ccccc1)c1ccc(Cl)cc1 (stereo not drawn) [CBK012748] | 84% | 
CN(CC(=O)O)C(=O)OCc1ccccc1 [CBK012752] | 101% | 
c1ccc(COc2ccc(N3CCNCC3)cc2)cc1 [CBK012776C] | 83.5% | 
COc1ccc2[nH]cc(CC3CCNCC3)c2c1 [CBK012779] | 104% | 
CC(=O)Nc1ccc(CNc2ccc(Cl)cc2)cc1 [CBK012799] | 104% | 
Cc1cccc(-n2c(C3CCCNC3=O)n[nH]c2=S)c1 (stereo not drawn) [CBK012842] | 89% | 
CCOC(=O)Cc1csc(NS(=O)(=O)c2cc(C)c(Cl)cc2Cl)n1 [CBK012872] | 91.3% | 
COc1cc(Cl)ccc1NC(=O)Oc1cccc2cnccc12 [CBK012882] |  | viability at 28.5 h, 10 µM [1]: 79.9%
CC(C)NCC(O)c1c2c(cc3c1CCC3)CCC2 (stereo not drawn) [CBK012972F] | 108% | 
CC(C)n1c(COc2ccc(OC(F)(F)F)cc2)n[nH]c1=S [CBK012989] | 92.9% | 

SMILES | viability at 28.5 h, 10 µM (% viability) | also measured
Cn1ncc(Nc2ccccc2)c1C(=O)O [CBK013004] | 114% | 
CC(C)CC1(C(CCN2C(=O)c3ccccc3C2=O)C(=O)NO)CCN(Cc2cccc(F)c2)C1=O (stereo not drawn) [CBK013032] | 83.8% | 
O=C(NC1CCCCC1)NS(=O)(=O)c1ccc(CCNC(=O)c2cnc3ccccc3n2)cc1 [CBK013051] | 87.1% | 
CCCCCn1c(Cc2ccccc2)n[nH]c1=O [CBK013059] | 98.3% | 
Clc1ccc2c(c1)CCC(NCC1COc3ccccc3O1)C2 (stereo not drawn) [CBK013077C] | 97.5% | 
COc1cccc(OC)c1OCCNC1CCc2cc(Cl)ccc2C1 (stereo not drawn) [CBK013079C] | 88.9% | 
C#CCNCc1ccc(O)cc1 [CBK013235C] | 87.4% | 
CC(C)(C)NCC(O)c1ccc(O)c2c1C1CCC2CC1 (stereo not drawn) [CBK013269C] | 93.9% | 
CCCCCn1c(-c2ccccc2)n[nH]c1=O [CBK013288] | 83.3% | 
O/N=C1\CC2(CCCCC2)c2ccccc21 [CBK013318] | 83% | 
c1ccc2c(c1)/C(=N/OCCN1CCCC1)CC21CCCCC1 [CBK013322] | 110% | 
CCN(CC)CCO/N=C1\CC2(CCCCC2)c2ccccc21 [CBK013325] | 101% | 
CN(C)CCO/N=C1\CC2(CCCC2)c2ccc(Cl)cc21 [CBK013334] | 78.1% | 
OC(CCNC1CCCCC1)(c1ccccc1)c1ccccc1 [CBK013339] | 101% | 
O=S(=O)(O)c1cccc2cccc(Nc3ccccc3)c12 [CBK013362G] | 84.8% | 
O=C(Nc1cccc(C(F)(F)F)c1)N1CCN(CCCCc2ccc(F)cc2)CC1 [CBK013363C] | 90.4% | 
CC(C)(C)OC(=O)NC1CCc2ccccc2N(Cc2ccccc2)C1=O (stereo not drawn) [CBK013366] | 97.1% | 
c1coc(COc2cncc(N3CCNCC3)n2)c1 [CBK013393] | 94.2% | 
COc1ccc(Cl)cc1N1CCNCC1 [CBK013449C] |  | viability at 28.5 h, 10 µM [1]: 89.4%
O=c1c(N2CCNCC2)nccn1CCOc1cccc(Cl)c1Cl [CBK013463] | 92.2% | 
COc1cc(OC)c(C(C)=O)c(OCCOc2nccnc2N2CCNCC2)c1 [CBK013497T] | 95.8% | 
c1ccc(OCCNc2nccnc2N2CCNCC2)cc1 [CBK013527] | 93.3% | 
CN(CCOc1ccc(CC2SC(=O)NC2=O)cc1)c1ccccn1 (stereo not drawn) [CBK013537] | 101% | 
COc1ccc(CNC(N)=O)cc1 [CBK013588] | 104% | 

From PMC12040169 (PLOS Biology, 2025)
